For 10 compounds, IC50 and inhibition results are on record in ChEMBL document CHEMBL4477248, “Blinded predictions of binding modes and energies of HSP90-α ligands for the 2015 D3R grand challenge” (Bioorg Med Chem, 2016).

Active and inactive are the calls of the source. The rule behind the calls is not given here.

For this experiment, the target named is Heat shock protein HSP 90-alpha (Homo sapiens, UniProt P07900). As to the kind of experiment: Inhibition of HSP90alpha (unknown origin).

Turning to `O=C1c2ccccc2-c2ccccc21`, the IC50 was above 1 µM. Still for that read-out and setting: next, `COc1cc(F)c(Cl)cc1C(=O)c1ccc(OCc2ccccc2)cc1`: above 1 µM. Still for that read-out and setting: the figure for `COC(=O)c1cc(C(=O)c2ccc(OC)cc2)cc(C(=O)OC)c1OC` is above 1 µM. For `CCOC(=O)CC1(C)Oc2ccccc2O1`, the inhibition result is “inactive”. Same read-out and setting: next, `O=C1c2ccccc2C(=O)c2c1ccc1nonc21`: “Active”; `CC(=O)Oc1ccc([N+](=O)[O-])c2ccccc12`: “inactive”. `O=c1[nH]c2cc(CNS(=O)(=O)c3cccnc3)ccc2n1-c1cc(Cl)c(O)cc1O`: the concentration for half-maximal inhibition (IC50) was found to be 0.005 µM. With `CC(=O)Oc1ccc2c(=O)c(Cc3ccccc3)c(C)oc2c1OC(C)=O`, the inhibition result is “Active”. Same read-out and setting: the entry for `Cn1c2c([n+](C)c1CCl)C(=O)c1ccccc1C2=O` is “Active”. On to `CCn1c(=O)n(-c2ccccc2OC)c2ccccc21`, for which the IC50 is above 1 µM.
